The source of these data is patent US8450374B2, “Pan-antagonists for the androgen receptor and androgen receptor mutants associated with anti-androgen withdrawal” (priority 2009, dated 2013).

Changes are numbered by the printed parent chain.

One data set has as its target T1, AR W741C (Homo sapiens, UniProt P10275, W742C).
T1 sequence (P10275 1-920 W742C): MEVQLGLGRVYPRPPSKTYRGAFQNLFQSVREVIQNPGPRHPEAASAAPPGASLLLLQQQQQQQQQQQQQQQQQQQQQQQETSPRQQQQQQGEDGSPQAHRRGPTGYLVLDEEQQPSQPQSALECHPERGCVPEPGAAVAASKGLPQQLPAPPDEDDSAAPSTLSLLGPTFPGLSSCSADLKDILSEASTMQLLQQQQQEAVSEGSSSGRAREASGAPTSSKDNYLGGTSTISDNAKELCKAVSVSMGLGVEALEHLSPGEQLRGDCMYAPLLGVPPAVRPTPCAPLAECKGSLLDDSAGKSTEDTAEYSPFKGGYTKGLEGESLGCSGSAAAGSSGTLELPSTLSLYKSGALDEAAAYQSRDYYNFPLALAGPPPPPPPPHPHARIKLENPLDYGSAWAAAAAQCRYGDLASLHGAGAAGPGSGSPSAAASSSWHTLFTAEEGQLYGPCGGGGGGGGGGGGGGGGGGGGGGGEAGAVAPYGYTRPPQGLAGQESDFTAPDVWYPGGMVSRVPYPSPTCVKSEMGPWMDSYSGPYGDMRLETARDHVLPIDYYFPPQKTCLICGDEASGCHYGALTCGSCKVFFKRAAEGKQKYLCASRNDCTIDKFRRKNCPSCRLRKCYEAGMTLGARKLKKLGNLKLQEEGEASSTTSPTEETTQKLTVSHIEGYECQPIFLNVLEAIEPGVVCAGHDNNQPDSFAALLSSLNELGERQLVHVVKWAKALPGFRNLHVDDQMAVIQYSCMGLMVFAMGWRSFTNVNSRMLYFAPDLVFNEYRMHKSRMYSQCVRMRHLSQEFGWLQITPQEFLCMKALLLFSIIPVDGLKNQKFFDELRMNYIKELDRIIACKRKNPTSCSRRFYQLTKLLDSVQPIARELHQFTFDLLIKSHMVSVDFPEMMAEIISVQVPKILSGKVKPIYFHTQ
Nature of the data set: Competitive binding assay, [3H]DHT, transfected COS-7 cells, AR W741C. More on the design: expressed in transfected cells; host or cells: COS-7. The following applies: 75 nM [3H]-DHT, read-out: Binding affinity (Ki), AR W741C. As for the experimental part:
(§1) Twenty-four hours prior to transfection, COS-7 cells were seeded at a density of 70,000 cells per well in 24-well cell culture plates and grown in phenol red free Dulbecco's Modified Eagle Medium (DMEM) supplement with 10% cosmic calf serum (CCS). The cells were transfected with a prokaryotic expression vector encoding the wild-type androgen receptor or mutant androgen receptor using Lipofectamine (Invitrogen) following manufacturer's protocol. […] Cells were washed with PBS and harvested in 2% SDS, 10% glycerol, and 10 mM Tris, pH 6.8, and radioactivity determined by scintillation counting.

A further data set addresses T2, AR T877A (Homo sapiens, UniProt P10275, T878A).
T2 sequence (P10275 1-920 T878A): T1 sequence (P10275 1-920 W742C) with C742W, T878A
Nature of the data set: Competitive binding assay, [3H]DHT, transfected COS-7 cells, AR T877A. The settings on record: 14 nM [3H]-DHT, read-out: Binding affinity (Ki), AR T877A. More on the design: expressed in transfected cells; host or cells: COS-7. As for the experimental part: as §1

Data set [1] can be described thus: In vivo tolerability of PAN52. The arrangement: species or system Male C57Bl/6 mice. The following applies: 25 mg/kg/day IP in 9:1 Cremophor, 3 day or 5 day course.
In the next data set the test system is LNCaP cells. Nature of the data set: Clonogenic assay / in vitro selection for antiandrogen resistance. The settings on record: RPMI + 10% DCC-FBS. The data set is classed as cell-based. As to the method:
Clonogenic assays are performed by a modification of the procedure described by Nara et al. (Cancer Research 2003, 63, 149-153). […] Media was changed every three days was and documented weekly. If cells reach 95% confluence, the cells were counted and reseeded at a density of 80,000 cell per well.

The subject of data set [2] is AR protein levels in CRW22 cells. The data set can be described thus: AR downregulation by western blot, CRW22RV1 cells. Type of data set: cell-based. The following applies: CRW22RV1 cells, 10, 50 or 100 μM, 24 h. As to the method: Compounds that down regulate the levels of AR in prostate cancer may be effective in androgen dependent cells and anti-androgen resistant cells that over express the androgen receptor. […] LNCaP or CRW22RV1 cells were treated with 10 μM, 50 μM or 100 μM compound for 24 h. Cells were harvested and lysed. Cell lysates were analyzed by SDS-PAGE followed by immunostaining with anti-AR and anti-lamin antibodies (see FIGS. 15 and 16).
Background: Immunoblotting shows a protein as a band on a membrane.

The term Ki denotes the equilibrium dissociation constant of an inhibitor or competing ligand from its target. On to `CN(C)CCCOc1cccc(Cc2ccccc2S(=O)(=O)CC(C)(O)C(=O)Nc2ccc(C#N)c(C(F)(F)F)c2)c1` (stereo not drawn) [PAN22], for which the results for the Ki on AR W741C and on AR T877A were 9.8 µM and 1.75 µM, respectively.

As for `CN(C)CCCOc1cccc(-c2ccccc2S(=O)(=O)CC(C)(O)C(=O)Nc2ccc(C#N)c(C(F)(F)F)c2)c1` (stereo not drawn) [PAN52], the Ki at AR W741C is 7.3 µM; at AR T877A, 4.13 µM. In addition, the “Behavior in grooming or feeding” value in data set [1] is “no abnormal behavior in grooming or feeding”. In the data set with LNCaP cells, the “Ability to evade resistance in in vitro selections (resistant LNCaP clones)” value was “evade resistance”. The “AR protein levels relative to bicalutamide, DHT or DMSO controls” value in data set [2] is listed as “downregulation of AR protein levels”.

Regarding `CN(C)CCCOc1ccc(-c2ccccc2S(=O)(=O)CC(C)(O)C(=O)Nc2ccc(C#N)c(C(F)(F)F)c2)cc1` (stereo not drawn) [PAN62], the values for the Ki on AR W741C and on AR T877A were 2.62 µM and 4.3 µM, respectively.
